# Source: patent US10494332B2, “Protein tyrosine phosphatases or SHP2 inhibitors and uses thereof” (Indiana University Research and Technology Corporation, priority 2015, dated 2019)
# pIC50: −log10 of the molar value. Several values for one entry are separate records, joined by “and”; a condition that tells them apart may be missing. Identical values can stand only once. Like-named read-outs stand apart in the source and are kept apart here.
# Key:
# Test in all cases: PTP inhibition assay (pNPP)
# Type in all cases: biochemical
# PTP1B = target: T1, PTP1B (Homo sapiens, UniProt P18031); conditions: pNPP at Km, pH 7.0, 25° C.
# T1 sequence (P18031 1-435): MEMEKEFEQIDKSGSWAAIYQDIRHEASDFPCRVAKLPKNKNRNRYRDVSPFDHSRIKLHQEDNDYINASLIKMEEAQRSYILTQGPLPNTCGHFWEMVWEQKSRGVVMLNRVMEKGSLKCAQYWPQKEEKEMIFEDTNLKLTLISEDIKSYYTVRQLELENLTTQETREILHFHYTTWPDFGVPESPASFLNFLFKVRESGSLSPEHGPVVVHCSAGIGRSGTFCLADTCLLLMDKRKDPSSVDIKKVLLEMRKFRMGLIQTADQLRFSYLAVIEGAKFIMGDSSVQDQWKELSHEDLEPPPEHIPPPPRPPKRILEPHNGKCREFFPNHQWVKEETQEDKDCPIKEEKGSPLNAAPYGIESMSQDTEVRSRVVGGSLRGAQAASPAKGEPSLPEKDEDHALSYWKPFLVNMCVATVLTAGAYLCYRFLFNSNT
# PTPσ = PTPσ (Homo sapiens, UniProt Q13332)
# PTPγ = PTPγ (Homo sapiens, UniProt P23470)
# PTPε = PTPε (Homo sapiens, UniProt P23469)
# CDC14A = target: T2, CDC14A (Homo sapiens, UniProt Q9UNH5)
# T2 sequence (Q9UNH5 1-594): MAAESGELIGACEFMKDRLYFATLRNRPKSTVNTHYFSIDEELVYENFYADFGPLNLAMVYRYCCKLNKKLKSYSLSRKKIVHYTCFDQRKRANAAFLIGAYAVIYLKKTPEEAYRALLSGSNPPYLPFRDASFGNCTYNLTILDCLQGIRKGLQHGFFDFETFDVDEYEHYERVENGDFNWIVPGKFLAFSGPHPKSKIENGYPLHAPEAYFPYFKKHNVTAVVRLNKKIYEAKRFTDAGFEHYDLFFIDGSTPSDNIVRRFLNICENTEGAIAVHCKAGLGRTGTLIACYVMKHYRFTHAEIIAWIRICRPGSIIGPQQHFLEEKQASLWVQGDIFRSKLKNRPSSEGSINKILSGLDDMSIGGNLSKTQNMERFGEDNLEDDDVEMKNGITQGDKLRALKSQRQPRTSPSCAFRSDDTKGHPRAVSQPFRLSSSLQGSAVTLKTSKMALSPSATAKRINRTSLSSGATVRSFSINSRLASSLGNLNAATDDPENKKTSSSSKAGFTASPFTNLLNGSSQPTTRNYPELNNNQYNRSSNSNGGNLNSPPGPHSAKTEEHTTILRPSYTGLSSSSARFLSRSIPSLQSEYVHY
# TbPTP1 = TbPTP1 (Trypanosoma brucei brucei, UniProt Q38AT7); conditions: pNPP at Km, pH 7.0, 25° C.; read-out: IC50 TbPTP1
# VHR = VHR (Homo sapiens, UniProt P51452); conditions: pNPP at Km, pH 7.0, 25° C.
# Laforin = target: T3, Laforin (Homo sapiens, UniProt O95278); conditions: pNPP at Km, pH 7.0, 25° C.; read-out: IC50 Laforin
# T3 sequence (O95278 1-331): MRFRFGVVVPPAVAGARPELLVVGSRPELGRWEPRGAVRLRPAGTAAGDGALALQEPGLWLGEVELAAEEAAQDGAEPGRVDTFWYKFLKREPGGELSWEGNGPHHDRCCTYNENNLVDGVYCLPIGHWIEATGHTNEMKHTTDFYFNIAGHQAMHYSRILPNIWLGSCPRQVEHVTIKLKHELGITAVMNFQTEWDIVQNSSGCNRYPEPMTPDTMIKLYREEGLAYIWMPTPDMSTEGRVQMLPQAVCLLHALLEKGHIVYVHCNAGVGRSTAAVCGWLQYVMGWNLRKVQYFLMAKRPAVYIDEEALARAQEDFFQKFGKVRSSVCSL
# VHX = target: T4, VHX (Homo sapiens, UniProt Q9NRW4); conditions: pNPP at Km, pH 7.0, 25° C.
# T4 sequence (Q9NRW4 1-184): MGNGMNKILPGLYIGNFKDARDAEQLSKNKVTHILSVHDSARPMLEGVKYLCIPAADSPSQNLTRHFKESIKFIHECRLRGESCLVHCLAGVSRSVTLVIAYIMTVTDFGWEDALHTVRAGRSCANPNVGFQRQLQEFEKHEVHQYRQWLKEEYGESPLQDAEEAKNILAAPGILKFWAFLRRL
# FAP1 = FAP1 (Homo sapiens, UniProt Q12923); conditions: pNPP at Km, pH 7.0, 25° C.; read-out: IC50 FAP1
# HePTP = target: T5, HePTP (Homo sapiens, UniProt P35236); conditions: pNPP at Km, pH 7.0, 25° C.
# T5 sequence (P35236 1-360): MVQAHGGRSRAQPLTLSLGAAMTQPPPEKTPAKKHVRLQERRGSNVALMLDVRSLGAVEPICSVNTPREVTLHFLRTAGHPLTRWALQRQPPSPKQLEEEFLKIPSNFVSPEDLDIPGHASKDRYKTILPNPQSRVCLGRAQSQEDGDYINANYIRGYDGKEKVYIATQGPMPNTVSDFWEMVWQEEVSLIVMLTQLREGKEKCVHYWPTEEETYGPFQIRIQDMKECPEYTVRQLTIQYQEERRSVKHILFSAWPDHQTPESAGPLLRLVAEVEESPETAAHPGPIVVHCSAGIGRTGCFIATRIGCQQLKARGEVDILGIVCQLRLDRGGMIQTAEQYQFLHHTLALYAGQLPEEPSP
# SHP1 = SHP1 (Homo sapiens, UniProt P29350); conditions: pNPP at Km, pH 7.0, 25° C.
# PTPβ = PTPβ (Homo sapiens, UniProt P23467)
# [1] = read-out: IC50 VHX (second VHX line of Table 15)
# TbPTP1, sequence (Q38AT7 entry or part of it): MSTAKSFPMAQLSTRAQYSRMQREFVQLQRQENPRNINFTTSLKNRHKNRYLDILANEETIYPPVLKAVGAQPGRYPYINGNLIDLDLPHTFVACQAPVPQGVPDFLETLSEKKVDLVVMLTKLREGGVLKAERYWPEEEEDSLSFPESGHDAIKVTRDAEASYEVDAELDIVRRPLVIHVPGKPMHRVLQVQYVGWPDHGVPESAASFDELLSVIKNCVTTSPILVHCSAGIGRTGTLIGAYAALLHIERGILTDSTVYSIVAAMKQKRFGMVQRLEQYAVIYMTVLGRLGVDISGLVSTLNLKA
# PTPβ, sequence (P23467 23-1997): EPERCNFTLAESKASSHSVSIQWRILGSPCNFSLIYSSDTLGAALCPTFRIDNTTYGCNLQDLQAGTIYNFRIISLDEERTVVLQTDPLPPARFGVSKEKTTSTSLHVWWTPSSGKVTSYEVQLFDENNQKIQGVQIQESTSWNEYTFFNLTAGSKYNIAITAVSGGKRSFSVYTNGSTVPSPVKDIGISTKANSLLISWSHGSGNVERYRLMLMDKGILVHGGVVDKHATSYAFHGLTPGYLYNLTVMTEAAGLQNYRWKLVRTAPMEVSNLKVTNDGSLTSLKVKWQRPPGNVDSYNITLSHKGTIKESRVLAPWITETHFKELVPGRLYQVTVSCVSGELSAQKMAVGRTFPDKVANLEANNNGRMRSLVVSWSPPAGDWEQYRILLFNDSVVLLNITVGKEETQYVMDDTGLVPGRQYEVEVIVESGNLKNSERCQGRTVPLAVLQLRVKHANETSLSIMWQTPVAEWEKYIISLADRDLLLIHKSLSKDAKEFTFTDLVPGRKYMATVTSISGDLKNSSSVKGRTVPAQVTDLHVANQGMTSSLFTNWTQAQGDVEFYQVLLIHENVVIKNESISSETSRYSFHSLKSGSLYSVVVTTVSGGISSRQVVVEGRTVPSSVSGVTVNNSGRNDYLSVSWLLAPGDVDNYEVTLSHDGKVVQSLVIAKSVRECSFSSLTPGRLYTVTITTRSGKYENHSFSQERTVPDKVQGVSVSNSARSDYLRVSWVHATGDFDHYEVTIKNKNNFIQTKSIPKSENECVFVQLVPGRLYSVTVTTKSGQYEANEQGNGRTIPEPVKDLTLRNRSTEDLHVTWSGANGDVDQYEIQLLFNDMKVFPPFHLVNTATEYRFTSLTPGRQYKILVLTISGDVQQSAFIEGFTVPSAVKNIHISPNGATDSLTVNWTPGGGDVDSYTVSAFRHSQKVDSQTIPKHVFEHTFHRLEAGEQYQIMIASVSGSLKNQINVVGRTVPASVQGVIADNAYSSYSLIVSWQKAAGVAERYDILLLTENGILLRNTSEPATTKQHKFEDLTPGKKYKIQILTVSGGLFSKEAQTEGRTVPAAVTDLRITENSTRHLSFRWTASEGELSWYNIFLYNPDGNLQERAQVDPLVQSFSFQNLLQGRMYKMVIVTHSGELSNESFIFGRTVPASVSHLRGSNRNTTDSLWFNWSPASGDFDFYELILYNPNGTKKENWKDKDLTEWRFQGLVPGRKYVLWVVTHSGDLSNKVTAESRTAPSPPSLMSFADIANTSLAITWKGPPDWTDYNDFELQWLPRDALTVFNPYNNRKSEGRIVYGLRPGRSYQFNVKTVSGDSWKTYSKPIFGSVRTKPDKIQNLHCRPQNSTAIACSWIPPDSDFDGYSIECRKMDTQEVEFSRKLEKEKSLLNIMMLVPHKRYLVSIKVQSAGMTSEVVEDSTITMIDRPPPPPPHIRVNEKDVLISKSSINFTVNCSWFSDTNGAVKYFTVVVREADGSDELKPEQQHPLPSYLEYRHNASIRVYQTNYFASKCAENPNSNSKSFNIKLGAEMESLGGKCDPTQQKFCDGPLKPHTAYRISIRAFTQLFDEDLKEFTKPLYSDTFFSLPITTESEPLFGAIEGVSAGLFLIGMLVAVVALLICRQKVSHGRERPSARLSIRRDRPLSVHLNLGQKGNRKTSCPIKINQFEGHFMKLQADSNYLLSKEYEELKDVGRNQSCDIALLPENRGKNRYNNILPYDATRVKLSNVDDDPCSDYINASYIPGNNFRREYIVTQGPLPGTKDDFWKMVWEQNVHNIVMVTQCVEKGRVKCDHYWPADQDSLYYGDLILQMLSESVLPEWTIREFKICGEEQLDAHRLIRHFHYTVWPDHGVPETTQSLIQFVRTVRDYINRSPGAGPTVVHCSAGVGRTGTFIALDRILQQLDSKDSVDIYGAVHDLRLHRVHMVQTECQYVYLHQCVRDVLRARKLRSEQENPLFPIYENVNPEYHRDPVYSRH
# PTPγ, sequence (P23470 20-1445): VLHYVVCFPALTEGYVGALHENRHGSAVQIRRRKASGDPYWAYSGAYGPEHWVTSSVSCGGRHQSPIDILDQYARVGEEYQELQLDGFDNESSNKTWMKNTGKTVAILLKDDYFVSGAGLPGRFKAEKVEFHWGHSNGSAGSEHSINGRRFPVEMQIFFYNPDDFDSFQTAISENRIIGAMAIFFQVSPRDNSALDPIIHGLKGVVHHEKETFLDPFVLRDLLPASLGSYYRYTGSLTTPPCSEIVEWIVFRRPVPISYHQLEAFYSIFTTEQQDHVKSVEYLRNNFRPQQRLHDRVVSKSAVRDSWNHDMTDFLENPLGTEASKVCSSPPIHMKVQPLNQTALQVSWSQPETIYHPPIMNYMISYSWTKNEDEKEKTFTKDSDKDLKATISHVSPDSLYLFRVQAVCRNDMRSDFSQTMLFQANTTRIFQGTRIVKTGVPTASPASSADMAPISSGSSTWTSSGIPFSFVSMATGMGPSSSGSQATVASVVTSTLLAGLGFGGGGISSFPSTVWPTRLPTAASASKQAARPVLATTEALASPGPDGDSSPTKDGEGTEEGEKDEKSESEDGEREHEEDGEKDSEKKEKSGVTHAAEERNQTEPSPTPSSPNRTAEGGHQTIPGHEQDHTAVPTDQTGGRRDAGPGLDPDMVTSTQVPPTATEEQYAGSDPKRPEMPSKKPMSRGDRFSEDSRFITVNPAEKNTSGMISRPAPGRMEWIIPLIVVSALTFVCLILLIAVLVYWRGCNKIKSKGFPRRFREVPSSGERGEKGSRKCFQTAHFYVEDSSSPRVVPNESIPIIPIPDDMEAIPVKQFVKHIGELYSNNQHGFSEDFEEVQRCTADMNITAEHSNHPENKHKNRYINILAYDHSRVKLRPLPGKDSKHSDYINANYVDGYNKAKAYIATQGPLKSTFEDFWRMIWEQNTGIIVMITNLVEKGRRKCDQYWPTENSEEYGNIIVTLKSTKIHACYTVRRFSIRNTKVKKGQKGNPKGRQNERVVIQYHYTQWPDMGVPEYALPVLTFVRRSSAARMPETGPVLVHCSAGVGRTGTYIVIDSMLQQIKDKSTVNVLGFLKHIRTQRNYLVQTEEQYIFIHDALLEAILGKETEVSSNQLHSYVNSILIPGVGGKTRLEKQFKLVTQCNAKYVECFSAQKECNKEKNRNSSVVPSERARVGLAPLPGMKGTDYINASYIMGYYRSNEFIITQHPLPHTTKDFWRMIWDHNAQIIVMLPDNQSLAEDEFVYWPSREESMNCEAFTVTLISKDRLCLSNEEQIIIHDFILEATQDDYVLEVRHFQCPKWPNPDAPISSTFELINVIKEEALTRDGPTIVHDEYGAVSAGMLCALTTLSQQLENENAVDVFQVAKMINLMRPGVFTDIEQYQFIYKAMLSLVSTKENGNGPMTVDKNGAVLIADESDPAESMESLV
# VHR, sequence (P51452 whole entry): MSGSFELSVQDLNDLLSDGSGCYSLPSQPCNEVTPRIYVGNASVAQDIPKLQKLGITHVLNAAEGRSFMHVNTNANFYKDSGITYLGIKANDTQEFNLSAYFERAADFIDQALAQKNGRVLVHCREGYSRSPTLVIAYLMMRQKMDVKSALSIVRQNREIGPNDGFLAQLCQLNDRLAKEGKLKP
# SHP1, sequence (P29350 whole entry): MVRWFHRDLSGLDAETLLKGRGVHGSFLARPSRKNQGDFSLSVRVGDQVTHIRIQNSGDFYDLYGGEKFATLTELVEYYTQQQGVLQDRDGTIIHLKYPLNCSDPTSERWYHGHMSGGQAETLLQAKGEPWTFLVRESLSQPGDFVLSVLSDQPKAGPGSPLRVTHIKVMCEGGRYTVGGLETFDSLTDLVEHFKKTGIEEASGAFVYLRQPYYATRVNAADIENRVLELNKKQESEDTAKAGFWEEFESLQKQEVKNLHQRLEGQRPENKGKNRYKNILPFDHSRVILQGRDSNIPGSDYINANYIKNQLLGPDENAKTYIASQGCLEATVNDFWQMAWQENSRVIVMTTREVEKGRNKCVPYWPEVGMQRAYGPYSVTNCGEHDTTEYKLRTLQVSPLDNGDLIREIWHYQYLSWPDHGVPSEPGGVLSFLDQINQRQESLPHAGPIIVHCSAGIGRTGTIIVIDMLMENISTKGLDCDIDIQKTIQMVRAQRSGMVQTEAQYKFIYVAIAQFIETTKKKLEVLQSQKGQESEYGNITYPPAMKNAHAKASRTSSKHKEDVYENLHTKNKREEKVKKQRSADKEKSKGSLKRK
Compound,pIC50 (PTP1B),pIC50 (PTPσ),pIC50 (PTPγ),pIC50 (PTPε),pIC50 (CDC14A),pIC50 (TbPTP1),pIC50 (VHR),pIC50 (Laforin),pIC50 (VHX; read-out: IC50 VHX),pIC50 (VHX; [1]),pIC50 (FAP1),pIC50 (HePTP),pIC50 (SHP1),pIC50 (PTPβ),pIC50 (PTPσ; read-out: IC50 PTPσ)
O=C(Nc1ccc2nc(C(F)(F)F)[nH]c2c1)C(c1ccccc1)S(=O)(=O)O (stereo not shown) [Compound L319M54],< 3.70,< 3.70,< 3.70,< 3.70,< 3.70,< 3.70,< 3.70,5.37,< 3.70,< 3.70,3.74 and < 4.00,< 3.70,< 3.70,< 3.70,
O=C(Nc1cccc(OCc2ccccc2)c1)C(c1ccccc1)S(=O)(=O)O (stereo not shown) [Compound L319M52],< 3.70,,< 3.70,< 3.70,< 3.70,3.93 and < 4.00,< 3.70,5.29,3.77 and < 4.00,,4.06,3.89 and < 4.00,< 3.70 and 4.21,< 3.70,< 3.70
O=C(C(c1ccccc1)S(=O)(=O)O)N1CCC(Cc2ccccc2)CC1 (stereo not shown) [Compound L319N46],< 3.70,,< 3.70,< 3.70,< 3.70,< 3.70,< 3.70,< 3.70,< 3.70,,< 3.70,< 3.70,< 3.70,< 3.70,< 3.70
O=C(C(c1ccccc1)S(=O)(=O)O)N1CCCC2CCCCC21 (stereo not shown) [Compound L319N53],< 3.70,,< 3.70,< 3.70,< 3.70,< 3.70,< 3.70,< 3.70,< 3.70,,4.12,< 3.70,< 3.70,< 3.70,< 3.70
O=C(CS(=O)(=O)O)Nc1nc2ccccc2s1 [Compound L335N15],< 4.00,,< 4.00,< 4.00,< 4.00,< 4.00,< 4.00,< 4.00,< 4.00,< 4.00,< 4.00,< 4.00,< 4.00,< 4.00,< 4.00
